From ChEMBL document CHEMBL3885881, “DrugMatrix”

Species on record: Rattus norvegicus
Assay: DrugMatrix - Regimen: Daily Repeat
Type: toxicity, organism-based, Sprague-Dawley
Set-up: regimen Daily Repeat, gender Male, age 6-8 weeks
Details: in vivo, iv, vehicle 100 % SALINE; for ABSOLUTE BASOPHIL / ABSOLUTE EOSINOPHIL / ABSOLUTE LYMPHOCYTE / ABSOLUTE MONOCYTE / ABSOLUTE SEGMENTED NEUTROPHIL / BASOPHIL / EOSINOPHIL / ERYTHROCYTE COUNT / HEMATOCRIT / HEMOGLOBIN / LEUKOCYTE COUNT / LYMPHOCYTE / MEAN CORPUSCULAR HEMOGLOBIN / MEAN CORPUSCULAR HEMOGLOBIN CONCENTRATION / MEAN CORPUSCULAR VOLUME / MONOCYTE / NEUTROPHIL / NUCLEATED RED BLOOD CELLS / PLATELET COUNT: tissue Blood; for ALANINE AMINOTRANSFERASE / ALBUMIN / ALKALINE PHOSPHATASE / ASPARTATE AMINOTRANSFERASE / BLOOD UREA NITROGEN / CARBON DIOXIDE / CHLORIDE / CHOLESTEROL / CREATINE PHOSPHOKINASE / CREATININE / GLUCOSE / LACTATE DEHYDROGENASE / LIPASE / PHOSPHORUS / POTASSIUM / SODIUM / TOTAL BILIRUBIN / TOTAL PROTEIN / URIC ACID: tissue Plasma
[1] = 0 mg/kg, 72 h, dose level Control, time 3 day
[2] = 0 mg/kg, 120 h, dose level Control, time 5 day
[3] = 29 mg/kg, 72 h, dose level Low, time 3 day

`C[n+]1ccccc1/C=N/O.[Cl-]` [PRALIDOXIME CHLORIDE] was tested, and the “ABSOLUTE BASOPHIL” value [1] was 0 CELLS/uL, the “ABSOLUTE EOSINOPHIL” value [1] was 53.17 CELLS/uL and the “ABSOLUTE LYMPHOCYTE” value [1] was 13731.5 CELLS/uL. The “ABSOLUTE MONOCYTE” value [1] was 186.17 CELLS/uL, the “ABSOLUTE SEGMENTED NEUTROPHIL” value [1] was 1645.83 CELLS/uL and the BASOPHIL [1] was 0%. The EOSINOPHIL [1] was 0.33%, the “ERYTHROCYTE COUNT” value [1] was 5.57 x10E6/uL and the HEMATOCRIT [1] was 36.33%. For the same compound, the HEMOGLOBIN [1] was 13.47 G/DL, the “LEUKOCYTE COUNT” value [1] was 15.62 x10E3/uL and the LYMPHOCYTE [1] was 88.5%. The “MEAN CORPUSCULAR HEMOGLOBIN” value [1] was 24.22 pg, the “MEAN CORPUSCULAR HEMOGLOBIN CONCENTRATION” value [1] was 37.1 G/DL and the “MEAN CORPUSCULAR VOLUME” value [1] was 65.35 fL. For the same compound, the MONOCYTE [1] was 1.17%, the NEUTROPHIL [1] was 10% and the “NUCLEATED RED BLOOD CELLS” value [1] was 0.17 /100WBC. The “PLATELET COUNT” value [1] was 1295.5 x10E3/uL, the “ALANINE AMINOTRANSFERASE” value [1] was 46.83 u/L and the ALBUMIN [1] was 4.37 G/DL. For the same compound, the “ALKALINE PHOSPHATASE” value [1] was 414.33 u/L, the “ASPARTATE AMINOTRANSFERASE” value [1] was 72.5 u/L and the “BLOOD UREA NITROGEN” value [1] was 17 mg/dL. For the same compound, the “CARBON DIOXIDE” value [1] was 23.5 mmol/L, the CHLORIDE [1] was 102 MEQ/L and the CHOLESTEROL [1] was 80.33 mg/dL. The “CREATINE PHOSPHOKINASE” value [1] was 207.83 u/L, the CREATININE [1] was 0.22 mg/dL and the GLUCOSE [1] was 172.17 mg/dL. For the same compound, the “LACTATE DEHYDROGENASE” value [1] was 131 u/L, the LIPASE [1] was 10.33 u/L and the PHOSPHORUS [1] was 11.75 mg/dL. For the same compound, the POTASSIUM [1] was 6.83 MEQ/L, the SODIUM [1] was 145.28 MEQ/L and the “TOTAL BILIRUBIN” value [1] was 0.22 mg/dL. The “TOTAL PROTEIN” value [1] was 6.22 G/DL, the “URIC ACID” value [1] was 1.9 mg/dL and the “ABSOLUTE BASOPHIL” value [2] was 0 CELLS/uL. The “ABSOLUTE EOSINOPHIL” value [2] was 33 CELLS/uL, the “ABSOLUTE LYMPHOCYTE” value [2] was 12184 CELLS/uL and the “ABSOLUTE MONOCYTE” value [2] was 108 CELLS/uL. The “ABSOLUTE SEGMENTED NEUTROPHIL” value [2] was 958.33 CELLS/uL, the BASOPHIL [2] was 0% and the EOSINOPHIL [2] was 0.17%. For the same compound, the “ERYTHROCYTE COUNT” value [2] was 5.9 x10E6/uL, the HEMATOCRIT [2] was 36.58% and the HEMOGLOBIN [2] was 13.33 G/DL. For the same compound, the “LEUKOCYTE COUNT” value [2] was 13.28 x10E3/uL, the LYMPHOCYTE [2] was 91.17% and the “MEAN CORPUSCULAR HEMOGLOBIN” value [2] was 22.67 pg. The “MEAN CORPUSCULAR HEMOGLOBIN CONCENTRATION” value [2] was 36.47 G/DL, the “MEAN CORPUSCULAR VOLUME” value [2] was 62.13 fL and the MONOCYTE [2] was 0.83%. The NEUTROPHIL [2] was 7.83%, the “NUCLEATED RED BLOOD CELLS” value [2] was 0.33 /100WBC and the “PLATELET COUNT” value [2] was 1475.33 x10E3/uL. The “ALANINE AMINOTRANSFERASE” value [2] was 47 u/L, the ALBUMIN [2] was 4.35 G/DL and the “ALKALINE PHOSPHATASE” value [2] was 368.33 u/L. For the same compound, the “ASPARTATE AMINOTRANSFERASE” value [2] was 90.83 u/L, the “BLOOD UREA NITROGEN” value [2] was 15.5 mg/dL and the “CARBON DIOXIDE” value [2] was 26.5 mmol/L. For the same compound, the CHLORIDE [2] was 103.33 MEQ/L, the CHOLESTEROL [2] was 71.83 mg/dL and the “CREATINE PHOSPHOKINASE” value [2] was 585.33 u/L. For the same compound, the CREATININE [2] was 0.19 mg/dL, the GLUCOSE [2] was 171.17 mg/dL and the “LACTATE DEHYDROGENASE” value [2] was 388.83 u/L. It also gave an LIPASE [2] of 10.83 u/L, a PHOSPHORUS [2] of 11.75 mg/dL and a POTASSIUM [2] of 6.21 MEQ/L. The SODIUM [2] was 143.7 MEQ/L, the “TOTAL BILIRUBIN” value [2] was 0.17 mg/dL and the “TOTAL PROTEIN” value [2] was 6.17 G/DL. The “URIC ACID” value [2] was 1.98 mg/dL, the “ABSOLUTE BASOPHIL” value [3] was 0 CELLS/uL and the “ABSOLUTE EOSINOPHIL” value [3] was 0 CELLS/uL. The “ABSOLUTE LYMPHOCYTE” value [3] was 13602.67 CELLS/uL, the “ABSOLUTE MONOCYTE” value [3] was 59 CELLS/uL and the “ABSOLUTE SEGMENTED NEUTROPHIL” value [3] was 1538.33 CELLS/uL. For the same compound, the BASOPHIL [3] was 0%, the EOSINOPHIL [3] was 0% and the “ERYTHROCYTE COUNT” value [3] was 5.23 x10E6/uL. For the same compound, the HEMATOCRIT [3] was 33.13%, the HEMOGLOBIN [3] was 12.77 G/DL and the “LEUKOCYTE COUNT” value [3] was 15.2 x10E3/uL. For the same compound, the LYMPHOCYTE [3] was 89.67%, the “MEAN CORPUSCULAR HEMOGLOBIN” value [3] was 24.4 pg and the “MEAN CORPUSCULAR HEMOGLOBIN CONCENTRATION” value [3] was 38.53 G/DL. For the same compound, the “MEAN CORPUSCULAR VOLUME” value [3] was 63.37 fL, the MONOCYTE [3] was 0.33% and the NEUTROPHIL [3] was 10%. For the same compound, the “NUCLEATED RED BLOOD CELLS” value [3] was 0.33 /100WBC, the “PLATELET COUNT” value [3] was 1243.67 x10E3/uL and the “ALANINE AMINOTRANSFERASE” value [3] was 60 u/L. The ALBUMIN [3] was 4.27 G/DL, the “ALKALINE PHOSPHATASE” value [3] was 485.33 u/L and the “ASPARTATE AMINOTRANSFERASE” value [3] was 76.33 u/L. For the same compound, the “BLOOD UREA NITROGEN” value [3] was 18.67 mg/dL, the “CARBON DIOXIDE” value [3] was 25 mmol/L and the CHLORIDE [3] was 104.67 MEQ/L. The CHOLESTEROL [3] was 77.67 mg/dL, the “CREATINE PHOSPHOKINASE” value [3] was 170 u/L and the CREATININE [3] was 0.26 mg/dL. For the same compound, the GLUCOSE [3] was 180.67 mg/dL, the “LACTATE DEHYDROGENASE” value [3] was 87.67 u/L and the LIPASE [3] was 11 u/L. For the same compound, the PHOSPHORUS [3] was 13.93 mg/dL, the POTASSIUM [3] was 6.97 MEQ/L and the SODIUM [3] was 146.7 MEQ/L. For the same compound, the “TOTAL BILIRUBIN” value [3] was 0.23 mg/dL, the “TOTAL PROTEIN” value [3] was 5.97 G/DL and the “URIC ACID” value [3] was 1.47 mg/dL.
